Test results from patent EP2067861A1, “Animals of the rattus genus wherein msh6 expression is functionally decreased and methods for the generation of specific mutants therefrom” (Koninklijke Nederlandse Akademie van Wetenschappen, priority 2007, dated 2009).

Test system: Male MSH6 knockout rats (Msh6^1Hubr)
Test: ENU-induced germ line mutation discovery by resequencing 768 amplicons in F1 progeny
Type: in vivo, rat
Experimental: All experiments were approved by the Animal Care Committee of the Royal Dutch Academy of Science according to the Dutch legal ethical guidelines. Experiments were designed to minimize the number of required animals and their suffering. Male MSH6 knockout rats (Msh6^1Hubr) of 12 weeks of age were given three weekly intraperitoneal injections of 25, 30 and 35 mg/kg bodyweight ENU. Preparation of ENU (Isopac; Sigma) was done as decribed (for detailed description, see (Smits et al. (2006) Pharmacogenet Genomics 16, 159-69) After the treatment the injected males were monitored for fertility by breeding with one or two females. Pups from these early matings were counted, but not analyzed. Ten weeks after the last injection, fertile males of the highest-dosed fertile group were kept on a weekly breeding scheme with two females to produce F1 progeny for mutational analysis. Animals were housed under standard conditions in groups of two to three per cage per gender under controlled experimental conditions (12-h light/dark cycle, 21±1°C, 60% relative humidity, food and water ad libitum).
At two weeks of age F1 progeny were uniquely tagged by fetching ear clips. Ear clips were lysed for at least 2 hours at 55°C and 1400 rpm in a Thermomixer comfort (Eppendorf) in 400 µl lysisbuffer (100 mM Tris (pH 8.5), 200 mM NaCl, 0.2% SDS, 5 mM EDTA and 100 µg/ml of freshly added Proteinase K) followed by phenol/chloroform (1:1, vol/vol) extraction. The DNA was precipitated by adding 300 µl isopropanol, mixing and centrifuging for 20 min, at 21,000 g at 4°C. The supernatant was discarded and pellets were washed with 70% ethanol and dissolved in 500 µl MQ.
768 pre-selected amplicons were amplified using a nested PCR setup. The first PCR was carried out using a touchdown thermocycling program (94°C for 60 sec; 15 cycles of 92°C for 30 sec, 65°C for 30 sec with a decrement of 0.6°C per cycle, 72°C for 60 sec; followed by 30 cycles of 92°C for 30 sec, 58°C for 30 sec and 72°C for 60 sec; 72°C for 180 sec; GeneAmp9700, Applied Biosystems). The PCR reaction contained ±100 ng DNA, 0.2 µM of each forward primer and 0.2 µM of each reverse primer, 400 µM of each dNTP, 25 mM tricine, 7.0% glycerol (w/v), 1.6% dimethyl sulfoxide (DMSO) (w/v), 2 mM MgCl2, 85 mM ammonium acetate pH 8.7 and 0.2 U Taq Polymerase in a total volume of 5 µl. After thermocycling, the PCR1 reactions were diluted with 20 µl H2O and 1 µl was used as template for the second round of PCR. The second PCR was done using a standard thermocycling program (94°C for 60 sec; 35 cycles of 92°C for 20 sec, 58°C for 30 sec and 72°C for 60 sec; 72°C for 180 sec; GeneAmp9700, Applied Biosystems). PCR2 mixes contained 1 µl diluted PCR1 template, 0.1 µM forward primer, 0.1 µM reverse primer, 100 µM of each dNTP, 25 mM tricine, 7.0% glycerol (w/v), 1.6% DMSO (w/v), 2 mM MgCl2, 85 mM ammonium acetate pH 8.7 and 0.1 U Taq Polymerase in a total volume of 5 µl. Several samples of each plate were tested on a 1% agarose gel containing ethidium bromide for the presence of the proper PCR fragment. PCR2 products were diluted with 20 µl H2O and 1 µl was directly used as a template for the sequencing reactions. Sequencing reactions contained 0.1 µl BigDye (v3.1; Applied Biosystems), 1.9 µl BigDye Dilution Buffer (Applied Biosystems) and 0.4 µM of the forward primers used for the PCR2 reaction in a total volume of 5 µl. The thermocycling program that was recommended by the manufacturer was used for the sequence reactions (40 cycles of 94°C for 10 sec, 50°C for 5 sec and 60°C for 120 sec). Sequencing products were purified by ethanol precipitation in the presence of 40 mM sodium-acetate and analyzed on a 96-capillary 3730XL DNA analyzer (Applied Biosystems), using the standard RapidSeq protocol on 36 cm array. Sequences were analyzed for the presence of heterozygous mutations using PolyPhred (Nickerson et al. (1997) Nucleic Acids Res. 25, 2745-51) and in-house developed software. […]

[1] = 3 x 30 mg/kg bodyweight ENU, animals born 14 - 16 weeks after the ENU injection
[2] = 94 coding mutations, all MSH6^-/- dose groups
[3] = ENU mutation spectrum, MSH6 deficient compared to proficient background
[4] = MSH6^-/- 3 x 25 mg/kg ENU, 16 pups, 3.57 x 10^6 bases screened
[5] = MSH6^-/- 3 x 30 mg/kg ENU, 291 pups, 69.66 x 10^6 bases screened
[6] = MSH6^-/- 3 x 35 mg/kg ENU, 3 pups, 0.72 x 106 bases screened
[7] = MSH6^-/- Total of the three dose groups

Compound: CCN(N=O)C(N)=O [ENU, N-ethyl-N-nitrosourea]
- Mutation Frequencies (3 x 30 mg/kg bodyweight ENU, F1 born 14 - 16 weeks after last injection): 1.88 x 10^-6
- # Mutations (3 x 30 mg/kg bodyweight ENU, F1 born 14 - 16 weeks after last injection, 59 pups, 14.92 x 10^6 bases screened): 28
- Mutation Frequencies (3 x 30 mg/kg bodyweight ENU, F1 born 17 - 19 weeks after last injection): 1.65 x 10^-6
- # Mutations (3 x 30 mg/kg bodyweight ENU, F1 born 17 - 19 weeks after last injection, 62 pups, 13.30 x 106 bases screened): 22
- Mutation Frequencies (3 x 30 mg/kg bodyweight ENU, F1 born 20 - 22 weeks after last injection): 1.24 x 10^-6
- # Mutations (3 x 30 mg/kg bodyweight ENU, F1 born 20 - 22 weeks after last injection, 67 pups, 15.34 x 10^6 bases screened): 19
- Mutation Frequencies (3 x 30 mg/kg bodyweight ENU, F1 born 23 - 25 weeks after last injection): 9.92 x 10^-7
- # Mutations (3 x 30 mg/kg bodyweight ENU, F1 born 23 - 25 weeks after last injection, 64 pups, 16.14 x 10^6 bases screened): 16
- mutation frequency (3 x 30 mg/kg bodyweight ENU, F1 born 23 weeks after the last injection or later): approximately 1.0 x 10^-6 per base pair
- Mutation Frequencies (3 x 30 mg/kg bodyweight ENU, F1 born 26 - 29 weeks after last injection): 1.10 x 10^-6
- # Mutations (3 x 30 mg/kg bodyweight ENU, F1 born 26 - 29 weeks after last injection, 39 pups, 9.97 x 10^6 bases screened): 11
- mutation frequency [1]: 1.88 x 10^-6 per base pair
- mutation rate (1 mutation every ... base pairs) [1]: 5.3 x 10^5 base pairs
- mutation frequency (3 x 30 mg/kg bodyweight ENU, animals born 17 - 19 weeks after the last ENU injection): 1.65 x 10^-6 per base pair
- mutation frequency (3 x 30 mg/kg bodyweight ENU, animals born 20 - 22 weeks after the last ENU injection): 1.24 x 10^-6 per base pair
- missense mutations, share of coding mutations [2]: ~74%
- nonsense mutations, share of coding mutations [2]: ~4%
- silent mutations, share of coding mutations [2]: ~21%
- percentage of A:T to G:C transitions [3]: significantly decreased
- percentage of G:C to A:T transitions [3]: significantly increased
- percentages of transversions [3]: No significant change
- # Mutations - non-coding (MSH6^-/- 3 x 25 mg/kg ENU): 0
- # Mutations - silent (MSH6^-/- 3 x 25 mg/kg ENU): 1
- # Mutations - missense [4]: 4
- # Mutations - nonsense [4]: 0
- # Mutations - total [4]: 5
- Mutation Frequencies (MSH6^-/- 3 x 25 mg/kg ENU, F1 progeny): 1.40 x 10^-6
- # Mutations - non-coding (MSH6^-/- 3 x 30 mg/kg ENU): 8
- # Mutations - silent (MSH6^-/- 3 x 30 mg/kg ENU): 19
- # Mutations - missense [5]: 65
- # Mutations - nonsense [5]: 4
- # Mutations - total [5]: 96
- Mutation Frequencies (MSH6^-/- 3 x 30 mg/kg ENU, F1 progeny): 1.38 x 10^-6
- # Mutations - non-coding (MSH6^-/- 3 x 35 mg/kg ENU): 0
- # Mutations - silent (MSH6^-/- 3 x 35 mg/kg ENU): 0
- # Mutations - missense [6]: 1
- # Mutations - nonsense [6]: 0
- Mutation Frequencies (MSH6^-/- 3 x 35 mg/kg ENU, F1 progeny): 1.38 x 10^-6
- # Mutations - missense [7]: 70
- # Mutations - non-coding [7]: 8
- # Mutations - silent [7]: 20
- # Mutations - total (MSH6^-/- Total of the three dose groups, 310 pups, 73,95 x 10^6 bases screened): 102
- increase of mutation rate compared to control animals (MSH6 deficient 3 x 30 mg/kg ENU versus control 3 x 40 mg/kg): 1.7 x
- mutation rate (1 mutation every ... base pairs) (MSH6 deficient, 3 x 30 mg/kg bodyweight ENU, 291 F1 progeny, almost 70 Mb): 7.26 x 10^5 base pairs
- mutations in coding regions (of the 102 mutations found, all MSH6^-/- dose groups): 94
